Earlier results on one molecule are cited in PMC5618191 (Toxins, 2017).

On the set-up of the data set: method as in PMID 26892719. The following applies: after three days of treatment; cited from earlier work.

`CC(C)[C@H]1C(=O)O[C@H](C(C)C)C(=O)N(C)[C@@H](C(C)C)C(=O)O[C@H](C(C)C)C(=O)N(C)[C@@H](C(C)C)C(=O)O[C@H](C(C)C)C(=O)N1C` [ENN B, enniatin B]: the Metabolites in mice result is reported as “three phase I metabolites”.
